In patent US4038390A, “Salts of p-dihydroxybenzene disulfonic acids for combatting hemorrhages and fragility of the capillaries” (Laboratorios del Dr. Esteve, S.A., priority 1972, dated 1977):

Tests used:
[1] = test system: average bleeding time; experiment: Hemostatic action: average bleeding time, method of ROSKAM modified by LAPORTE, rabbit's ear; type: in vivo; settings: for DE50: effect and route not given; for Percentage decrease of average bleeding time: one hour after administering
Description: (§1) The activity for the hemostatic action is determined in vivo, by ROSKAM's method, as modified by LAPORTE, on the rabbit's ear, and the protective action on the capillaries by the method of BEACH and STEINETZ. The therapeutical index (ratio between LD50 and TE50) is very favorable, in view of the high activity and low toxicity.

[2] = DL50 of some compounds according to the invention (species not stated); set-up: DL50: unit not given beside the values; settings: in vivo
Text: The following table gives the values for DL50 and DE50, as well as proposed doses of some compounds according to the present invention.

[3] = Acute toxicity in the mouse (LD50, method of Reed and Muench); settings: in vivo
Description: (§2) 1. Acute toxicity in the mouse and the rat
(§3) The LD50 was determined according to the method of Reed and Muench.

[4] = Acute toxicity in the rat (LD50, method of Reed and Muench); settings: in vivo
Description: as §2
100 to 150 g Sprague-Dawley rats
as §3

[5] = test system: capillary permeability; experiment: Protective action on capillaries: capillary permeability, modified method of BEACH-STEINITZ; type: in vivo; settings: mouse
Description: as §1
The action of bis diethylamine p-dihydroxy benzene disulfonate on the capillary permeability for the mouse was determined by the modified method of BEACH-STEINITZ (J. Pharmacol. Exp. Ther. 131 (1), 400, 1961). The product, administered i.p., causes a decrease of the capillary permeability which appears after 8 micromoles/kg, and higher doses, and the maximum effect is attained at a dose of 200 micromoles/kg.

[6] = test system: plasma cholesterol, triglyceride, and total lipids levels; experiment: Hypolipedemic action in rats treated with Triton WR-1339; type: in vivo, Sprague-Dawley rats

Question: With `O=S(=O)(O)c1cc(O)c(S(=O)(=O)O)cc1O` [bis (ammonium) p-dihydroxy-benzene disulfonate] [bis (ammonium)-p-dihydroxy benzene disulfonate] as the compound, how does the DE50 [1] read?
Answer: The DE50 was 2,45 μmoles/kg.

Question: For `O=S(=O)(O)c1cc(O)c(S(=O)(=O)O)cc1O` [bis (ammonium)-p-dihydroxy benzene disulfonate], which LD50 ([2]; route not given) is on record?
Answer: Its LD50 is 1210 mg/kg.

Question: For `O=S(=O)(O)c1cc(O)c(S(=O)(=O)O)cc1O` [bis (piperazine) p-dihydroxy-benzene disulfonate] [bis (piperazine) p-dihydroxy benzene disulfonate], which DL50 ([2]; po) is on record?
Answer: Its DL50 is greater than 2000.

Question: What about the DE50 [1] of the same compound?
Answer: Its DE50 is 1,25 μmoles/kg.

Question: For `O=S(=O)(O)c1cc(O)c(S(=O)(=O)O)cc1O` [bis-diethylamine p-dihydroxy benzene disulfonate] [listing 1 of 2 here], which LD50 ([3]; iv, I.V., mouse female) is on record?
Answer: Its LD50 is 1020 mg/kg.

Question: And the LD50 ([3]; iv, I.V., mouse male)?
Answer: The LD50 was 1020 mg/kg.

Question: And the LD50 ([3]; po, mouse female)?
Answer: Its LD50 is 5880 mg/kg.

Question: What about the LD50 ([3]; po, mouse male) of the same compound?
Answer: Its LD50 is 6290 mg/kg.

Question: What about the LD50 ([4]; ip, I.P., rat female) of the same compound?
Answer: The LD50 was 2440 mg/kg.

Question: And the LD50 ([4]; ip, I.P., rat male)?
Answer: Its LD50 is 2650 mg/kg.

Question: What about the LD50 ([4]; po, rat female) of the same compound?
Answer: Its LD50 is 4680 mg/kg.

Question: And the LD50 ([4]; po, rat male)?
Answer: Its LD50 is 5840 mg/kg.

Question: What about the ED (maximum effect) ([5]; ip, read-out: dose at which maximum effect on capillary permeability is attained) of the same compound?
Answer: Its ED (maximum effect) is 200 µmol/kg.

Question: What about the minimal effective dose ([5]; ip, read-out: dose from which decrease of the capillary permeability appears) of the same compound?
Answer: The minimal effective dose was no less than 8 µmol/kg.

Question: For `O=S(=O)(O)c1cc(O)c(S(=O)(=O)O)cc1O` [bis-diethylamine p-dihydroxy benzene disulfonate] [listing 2 of 2 here], which “Percentage decrease of average bleeding time” value (shortened to “Percentage decrease”) ([1]; 0.625 micromoles/kg) is on record?
Answer: Its value is 8.5%.

Question: And the “Percentage decrease” value ([1]; 1.25 micromoles/kg)?
Answer: The value was 19.5%.

Question: And the “Percentage decrease” value ([1]; 2.5 micromoles/kg)?
Answer: Its value is 32.0%.

Question: And the “duration of effect on bleeding time (in words)” value ([1]; 5 micromoles/kg)?
Answer: The value was “long lasting”.

Question: What about the “% decrease of average bleeding time” value ([1]; 5 micromoles/kg, 1 hour after i.v. administration) of the same compound?
Answer: Its value is 43.0%.

Question: And the “% decrease of average bleeding time” value ([1]; 5 micromoles/kg, 2 hours after i.v. administration)?
Answer: The value was 46.8%.

Question: What about the “% decrease of average bleeding time” value ([1]; 5 micromoles/kg, 4 hours after i.v. administration) of the same compound?
Answer: The value was 42.0%.

Question: What about the “% decrease of average bleeding time” value ([1]; 5 micromoles/kg, 8 hours after i.v. administration) of the same compound?
Answer: The value was 33.5%.

Question: What about the “% decrease of average bleeding time” value ([1]; 5 micromoles/kg, 16 hours after i.v. administration) of the same compound?
Answer: Its value is 32.0%.

Question: What about the “% decrease of average bleeding time” value ([1]; 5 micromoles/kg, 24 hours after i.v. administration) of the same compound?
Answer: Its value is 21.0%.

Question: What about the “Percentage decrease” value ([1]; 5.0 micromoles/kg) of the same compound?
Answer: The value was 43.0%.

Question: And the “Percentage decrease” value ([1]; 7.05 micromoles/kg)?
Answer: The value was 51.0%.

Question: What about the “Percentage decrease” value ([1]; 10.0 micromoles/kg) of the same compound?
Answer: The value was 50.0%.

Question: What about the DE50 [1] of the same compound?
Answer: Its DE50 is 2,25 μmoles/kg.

Question: And the “effect on bleeding time (in words)” value ([1]; rabbit)?
Answer: The value was “produces a decrease of the bleeding time”.

Question: What about the “dose dependence of decrease of capillary permeability (in words)” value ([5]; i.p., intermediate doses (8 to 200 micromoles/kg)) of the same compound?
Answer: The value was “effects proportional to the logarithm of the dose”.

Question: And the “FREE CHOLESTEROL (plasma)” value ([6]; Triton + compound, Triton alone 60.5 ± 2.5)?
Answer: The value was 54.4 ± 3.9 mg %.

Question: And the “TOTAL CHOLESTEROL (plasma)” value ([6]; Triton + compound, Triton alone 238.4 ± 6.5)?
Answer: Its value is 223.0 ± 15.1 mg %.

Question: What about the “TRIGLYCERIDES (plasma)” value ([6]; Triton + compound, Triton alone 773.5 ± 59.1) of the same compound?
Answer: The value was 589.5 ± 57.9 mg %.

Question: And the “TOTAL LIPIDS (plasma)” value ([6]; Triton + compound, Triton alone 2466.9 ± 141.2)?
Answer: Its value is 2001.9 ± 193.7 mg %.

Question: And the “effect on increase of plasma cholesterol, triglyceride, and total lipids levels (in words)” value ([6]; Triton WR-1339 treated rats)?
Answer: The value was “significantly inhibits the increase”.

Question: Which results are given for `O=S(=O)(O)c1cc(O)c(S(=O)(=O)O)cc1O` [calcium p-dihydroxybenzene-disulfonate, calcium p-dihydroxy benzene disulfonate]?
Answer: DL50 ([2]; po): > 6880; DE50 [1]: 0,98 μmoles/kg

Question: For `O=S(=O)(O)c1cc(O)c(S(=O)(=O)O)cc1O` [lithium p-dihydroxybenzene-disulfonate, lithium p-dihydroxy benzene disulfonate], which DL50 ([2]; iv) is on record?
Answer: The DL50 was 2186.

Question: What about the DE50 [1] of the same compound?
Answer: The DE50 was 0,90 μmoles/kg.
